Experimental findings from patent publication US20210238173A1, “MITOGEN-ACTIVATED PROTEIN KINASE KINASE 7 INHIBITORS” (Yeda Research and Development Co. Ltd., priority 2018, published 2021) are described below.

Where only a bound is given, the exact number is not on record here.

The nature of data set [1]: Metabolic stability in human liver microsomes. Type of data set: in vitro ADME. Particulars: for half-life: human, liver microsomes. From the text:
(§1) A reference compound, REF1250, was used in this study: […]

The nature of data set [2]: Metabolic stability in rat liver microsomes. Type of data set: in vitro ADME. To be noted: for half-life: rat, liver microsomes.
Description: as §1
For orientation: Microsomes from liver hold many membrane-bound enzymes, among them those of drug oxidation.

A short description of data set [3]: Metabolic stability in monkey liver microsomes. Type of data set: in vitro ADME.
Description: as §1

The nature of data set [4]: Metabolic stability in mouse liver microsomes. Type of data set: in vitro ADME. To be noted: for half-life: mouse, liver microsomes.
Description: as §1

In a further data set the target is T1, MKK7 (Homo sapiens, UniProt O14733).
T1 construct: purchased Nanosyn (contract assay)
T1 sequence (O14733 1-419): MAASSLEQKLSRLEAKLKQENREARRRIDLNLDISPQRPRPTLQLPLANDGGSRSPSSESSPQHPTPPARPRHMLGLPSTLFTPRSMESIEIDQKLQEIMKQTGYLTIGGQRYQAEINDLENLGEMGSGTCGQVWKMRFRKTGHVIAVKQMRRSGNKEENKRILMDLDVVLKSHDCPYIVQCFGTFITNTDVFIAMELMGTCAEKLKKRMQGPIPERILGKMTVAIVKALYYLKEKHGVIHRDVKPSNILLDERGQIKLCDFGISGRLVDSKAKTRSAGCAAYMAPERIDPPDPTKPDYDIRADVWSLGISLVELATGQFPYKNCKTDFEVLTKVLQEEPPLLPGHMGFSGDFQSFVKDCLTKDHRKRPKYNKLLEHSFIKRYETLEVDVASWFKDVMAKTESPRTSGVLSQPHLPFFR
The data set can be described thus: In vitro kinase activity assay for MKK7 (Nanosyn). Type of data set: biochemical. Particulars: read-out: MKK7 IC50 in vitro. How it is done: Based on visual inspection of the top 500 predictions, 10 compounds were selected for synthesis and testing (see, Table 1). The “Docking rank” is given in its respective run, whereas four virtual libraries of acrylamides were docked separately, based on the amine precursor for the acrylamide (primary or secondary aliphatic amines, primary or secondary aromatic amines). In vitro kinase activity assay was carried out by Nanosyn, as described below.
(§2) In Vitro Activity Assays for MKK7 or MKK4 (Carried by Nanosyn):
(§3) Exemplary test compounds, according to some embodiments of the present invention, were diluted in DMSO to a final concentration that ranged from 10 μM to 0.0565 nM, while final concentration of DMSO in all assays was kept at 1%. Reference compound, Staurosporine, was tested in a similar manner. […] After incubation, activity of now activated JNK1 was tested in the presence of 30 μM ATP ATP for 17 h (MKK7) or 4 h (MKK4).

Another data set addresses T2, MKK4 (Homo sapiens, UniProt P45985).
T2 construct: purchased Nanosyn (contract assay)
T2 sequence (P45985 1-399): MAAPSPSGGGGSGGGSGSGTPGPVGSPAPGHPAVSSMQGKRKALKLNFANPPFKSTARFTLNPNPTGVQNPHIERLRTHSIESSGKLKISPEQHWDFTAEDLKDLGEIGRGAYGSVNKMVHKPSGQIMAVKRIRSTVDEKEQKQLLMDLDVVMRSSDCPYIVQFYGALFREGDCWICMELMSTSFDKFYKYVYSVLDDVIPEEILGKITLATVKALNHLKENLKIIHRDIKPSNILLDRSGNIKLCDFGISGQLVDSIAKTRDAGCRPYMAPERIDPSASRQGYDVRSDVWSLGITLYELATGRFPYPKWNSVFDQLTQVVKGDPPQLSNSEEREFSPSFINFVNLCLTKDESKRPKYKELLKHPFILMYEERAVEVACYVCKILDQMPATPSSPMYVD
The experiment in a line: In vitro activity assay for MKK4 (Nanosyn). Type of data set: biochemical. On the procedure: as §2, §3

A short description of data set [5]: Metabolic stability in dog liver microsomes. Type of data set: in vitro ADME. To be noted: for half-life: dog, liver microsomes.
Description: as §1

A further data set has as its system pJNK in HEK293 cells. The data set can be described thus: In-cell western (ICW) pJNK inhibition in HEK293. Type of data set: cell-based. Particulars: 2 h pre-incubation, sorbitol stimulation. On the procedure: (§4) HEK293, Beas2B and 3T3 cells were plated 24 hours before procedure on 384 well clear bottom black flat plates (Corning) pre-coated with Fibronectin (Sigma) diluted in PBS to a concentration of 5 μg/ml 45 minutes prior to cells introduction. Cells were plated using Multidrop™ Combi reagent dispenser (Thermo Fisher Scientific). Compound, reagents and antibody dispensing as well as washes were performed with a CyBio liquid handler (Analytik). Cells were pre-incubated with a small molecule or up to 1% DMSO for 2 h before fixation. HEK293, 3T3 or Beas2B cells were treated with 0.6M/0.2M/0.2M D-Sorbitol/PBS (Sigma) for 20/40/40 min. respectively, before fixation. Media was removed and wells were immediately fixed with 150 μl per well of 3.7% formaldehyde/PBS fixing solution for 20 min. Formaldehyde was then aspired and cells were permeabilized with 150 μl of 0.5% Triton x-100/PBS solution for 10 min. After aspiration cells were washed with ice-cold methanol and stored at −20° C., for 10 min. Methanol was aspired and cells were blocked with 150 μl blocking buffer (LICOR) for 90 min. Primary antibody Phospho-SAPK/JNK T183/Y185 (CST; 9251S) was diluted 1:1000 in blocking buffer and was applied 50 μl per well, except control wells to which only blocking buffer was applied, O.N. (16 h) at 4° C. with mild shaking. Primary antibody was aspired, wells were washed with 150 μl 0.1% Tween20/PBS (Sigma) washing solution three times for 7 min. IRDye® 800CW Goat anti-Rabbit IgG Secondary antibody (LICOR) was then diluted 1:1200 in blocking buffer with 50 μl applied per well on control wells only (no CellTag control), then CellTag700 (1:2000) was added to the solution and 50 μl were added to all experiment wells, for 1 h at room temperature. Wells were aspired and washed again with 150 μl 0.1% Tween20/PBS (Sigma) washing solution three times for 7 min. plate was dried and scanned with Odyssey CLx imaging system at 700 nm and 800 nm (Licor). Wells signals were analyzed with Odyssey software. The signal was normalized by the CellTag700 signal.
(§5) To rapidly assess the cellular activity (EC50) with full dose response curves of the MKK7 covalent inhibitors, according to some embodiments of the present invention, an in-cell western assay was adapted to a 384 well plate format over traditional western blot, and monitored phospho-JNK (pJNK) levels in response to osmotic shock. We first characterized the dynamics of pJNK in response to sorbitol. Sufficient dynamic range for pJNK is achieved at 20 minutes in HEK293 cells and at 40 minutes in 3T3 and Beas2B cells. The compound's activity was assessed by pre-treating cells with either compound or DMSO for 2 hours, followed by Sorbitol stimulation. The response of pJNK, and its substrates, pc-Jun and pATF2, was measured, as well as pP38, which is a substrate of MKK4 but not MKK7, and pERK in HEK293 cells, and the results are presented in Table 5 below.

For another data set, the system named is primary mouse B-cells. The data set can be described thus: Primary B-cell activation (CD86+ FACS) in response to LPS. Type of data set: cell-based. To be noted: for inhibition of the CD86+ response: 10 μM, 2 hours pre-incubation. The text has this: Compounds Block Activation of Primary Mouse B-Cells:
JNK is known to mediate activation of B-cells in response to lypopolysacharide (LPS) through the TLR4 signaling pathway as well as in response to B-cell receptor activation (stimulated e.g. with an anti-IgM antibody). Primary B-cells were isolated from the spleen of mice and assessed for their B-cell activation, via FACS analysis of CD86+ expression, in response to LPS in the presence or absence of the covalent MKK7 enzyme inhibitors presented herein, as well as a positive control JNK inhibitor, JNK-IN-8.
At 10 μM and 2 hours pre-incubation before stimulation, GO80 was able to inhibit 60% of the CD86+ response.

The subject of the next data set is pJNK in 3T3 WT cells. The experiment in a line: In-cell western (ICW) pJNK inhibition in 3T3 WT. Type of data set: cell-based. Particulars: for EC50: 3T3 WT, ICW, 2 h pre-incubation, sorbitol stimulation. How it is done: as §4, §5
Wildtype 3T3 cells, 3T3 MKK7 double knock-out (MKK7^−/−) cells and MKK4/7 double knockouts (MKK4/7^−/−) were used to validate on target activity of the MKK7 covalent inhibitors presented herein.

Where [6] appears, read: Homo sapiens, HEK293, HEK293, ICW.

As usually defined, the half-life is the time in which the quantity being followed falls by half. What is called IC50 is the concentration at which inhibition is half-maximal. For `C=CC(=O)Nc1cccc(-c2n[nH]c3cc(Br)ccc23)c1` [GO98], the “% remaining @ 40 min” value is listed as 0% in [1]; 2% in data set [2]; 0% in [3]; 0% in data set [4]; 0% in [5]. Moreover, the half-life was below 5 min in [1]; 6 min in data set [2]; below 5 min in [3]; below 5 min in data set [4]; below 5 min in [5]. Moreover, the IC50 on MKK7 is 10 nM; on MKK4, above 10000 nM.
One may read the EC50 as the concentration giving half of the maximal effect. Regarding `C=CC(=O)Nc1cccc(-c2n[nH]c3cc(Cl)ccc23)c1` [GO106], the “% remaining @ 40 min” value in [1] worked out at 0%; in data set [2], 17%; in data set [3], 0%; in data set [4] it was 0%; in data set [5], 0%. Moreover, the half-life was below 5 min in [1]; 16 min in data set [2]; below 5 min in data set [3]; below 5 min in data set [4]; below 5 min in data set [5]. The same compound yielded an EC50 with pJNK in HEK293 cells (setting [6]) of 3000 nM. In addition, the IC50 on MKK7 came out at 5 nM.
`C=CC(=O)Nc1cc(C#N)cc(-c2n[nH]c3cc(C)ccc23)c1` [GO108]: the “% remaining @ 40 min” value in data set [1] worked out at 0%; in data set [2], 6%; in [3], 0%; in data set [4] it was 0%; in data set [5], 0%. Besides, the half-life in data set [1] is below 5 min; in data set [2], 10 min; in data set [3] it was below 5 min; in data set [4], below 5 min; in data set [5] it was below 5 min. Also, the EC50 in the data set with pJNK in HEK293 cells (HEK293, ICW) is 2300 nM; with pJNK in HEK293 cells (setting [6]), 3700 nM. Also, the IC50 is 2 nM on MKK7 and above 10000 nM against MKK4.
As to `Cc1cc(NC(=O)c2cccc(NC(=O)/C=C/CN(C)C)c2)ccc1Nc1nccc(-c2cccnc2)n1` [JNK-IN-8, reference compound], the “inhibition of the CD86+ response” value in the data set on primary mouse B-cells was around 90%.
As to `C=CC(=O)Nc1cc(-c2n[nH]c3ccccc23)ccn1` [PCM475], the “% remaining @ 40 min” value in data set [1] came to 0%; in [2], 22%; in data set [3], 18%; in [4] it was 0%; in data set [5], 5%. The Halflife is recorded as below 5 min in data set [1]; 18 min in [2]; 16 min in data set [3]; below 5 min in data set [4]; 9 min in data set [5]. Moreover, the “inhibition of the CD86+ response” value in the data set with primary mouse B-cells was around 90%. Moreover, the EC50 in the data set with pJNK in HEK293 cells (HEK293, ICW) turned out to be 900 nM; with pJNK in 3T3 WT cells, 300 nM.
As to `C=CC(=O)Nc1cc(C(=O)O)cc(-c2n[nH]c3ccccc23)c1` [PCM476], the “% remaining @ 40 min” value worked out at 100% in [1]; 61% in [2]; 100% in data set [3]; 100% in [4]; 100% in data set [5]. Also, the Halflife was above 40 min in data set [1]; “more than 40 min” in [1] (listed as PCM76); above 40 min in data set [2]; above 40 min in [3]; above 40 min in [4]; above 40 min in data set [5]. Further, in the data set with pJNK in 3T3 WT cells, the EC50 was above 10000 nM. In addition, the “activity in ICW in 3T3 cells” value in the data set on pJNK in 3T3 WT cells was “inactive”.
As for `C=CC(=O)Nc1cc(C(=O)NC)cc(-c2n[nH]c3ccccc23)c1` [PCM487], the “% remaining @ 40 min” value in [1] is 38%; in data set [2] it was 72%; in [3], 41%; in data set [4], 3%; in [5], 71%. In addition, the Halflife in [1] is listed as 27 min; in data set [2], above 40 min; in [3] it was 33 min; in data set [4], 8 min; in [5], above 40 min. Moreover, the “inhibition of the CD86+ response” value in the data set on primary mouse B-cells is on record as around 90%. The IC50 with primary mouse B-cells (full dose response) was 4900 nM. For the same compound, in the data set on pJNK in 3T3 WT cells (listed as PCM87), the midpoint of the response, the EC50, lay at 4060 nM.
Take `C=CC(=O)N[C@H]1CCCN(c2[nH]nc3ccccc23)C1` [PCM531]: in the data set on pJNK in HEK293 cells (setting [6]), the EC50 was above 10000 nM. Moreover, in the data set on pJNK in 3T3 WT cells, the “activity in ICW in 3T3 cells” value was “inactive”.
Take `C=CC(=O)N[C@@H]1CCCN(c2[nH]nc3ccccc23)C1` [PCM532]: the EC50 with pJNK in HEK293 cells (setting [6]) is above 10000 nM. Also, in the data set on pJNK in 3T3 WT cells, the “activity in ICW in 3T3 cells” value is “inactive”.
In the case of `C=CC(=O)Nc1cc(C(=O)N(C)C)cc(-c2n[nH]c3ccccc23)c1` [PCM549], the EC50 in the data set on pJNK in 3T3 WT cells was above 10000 nM.
